These results are taken from publication PMC4183650 (Journal of the American Chemical Society, 2014).

A value given as a limit tells only on which side of the number the result lay.

Test [1] has as its system VanA VRE. Conditions: clinically resistant phenotypes (VanA and VanB); cited from earlier work.
In test [2] the test system is panel of Gram-positive bacteria (VSSA, MRSA, VanA and VanB VRE). Put plainly: In vitro antimicrobial assay, panel summary in text. Format: cell-based, S. aureus, E. faecalis, E. faecium.
The conditions of test [3]: both D-Ala-D-Ala and D-Ala-D-Lac ligands; cited from earlier work.

In the case of Vancomycin [compound 1], in test [1], the “loss in antimicrobial activity in resistant phenotypes” value is recorded as 1000 fold.

As to “[Ψ[C(=NH)NH]Tpg^4]vancomycin [compound 3]”, in test [2] (VanA resistant bacteria), the “MIC against VanA resistant bacteria” value came to 0.5 µg/mL. On to “[Ψ[C(=NH)NH]Tpg^4]vancomycin aglycon [compound 9]”, for which, in test [3], the “binding affinity for both target ligands relative to vancomycin aglycon for D-Ala-D-Ala” value is recorded as not above 2 fold.

As to “[Ψ[C(=S)NH]Tpg^4]vancomycin [compound 2]”, the “MIC against all vancomycin sensitive and resistant strains” value in test [2] (whole panel: VSSA, MRSA, VanA and VanB VRE) is more than 32 µg/mL.
